# Values joined by “and” are separate entries in the source; they are usually repeats but may differ in a detail not shown here. Identical values can stand only once.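 Method: 48-hour compound exposure of cells in 96-well plates, five concentrations, linear interpolation of endpoints. At the GI50, growth is halved. TGI: concentration producing complete growth inhibition.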
# What was measured:
# Assay in all cases: NCI tumour cell line growth inhibition, 48 h
# KM20L2 colon = tested on: KM20L2 colon
# M19-MEL melanoma = tested on: M19-MEL melanoma
# HOP-18 NSCLC = tested on: HOP-18 NSCLC
# DMS 273 small cell lung = tested on: DMS 273 small cell lung
# SNB-78 CNS = tested on: SNB-78 CNS
# DMS 114 small cell lung = tested on: DMS 114 small cell lung
# XF 498 CNS = tested on: XF 498 CNS
# RXF-631 renal = tested on: RXF-631 renal
# MDA-N = tested on: MDA-N
# SN12K1 renal = tested on: SN12K1 renal
# P388/ADR leukemia = tested on: P388/ADR leukemia
# P388 leukemia = tested on: P388 leukemia
SMILES,TGI (KM20L2 colon) [µM],TGI (M19-MEL melanoma) [µM],TGI (HOP-18 NSCLC) [µM],TGI (DMS 273 small cell lung),TGI (SNB-78 CNS),TGI (DMS 114 small cell lung) [µM],TGI (XF 498 CNS) [µM],TGI (MDA-N) [µM],other results
O=c1c2ccccc2c(=O)n2n1CC=CC2,> 100,> 100,> 100,> 100 µM,> 100 µM,> 100,,,
COc1ccc2c(c1)[n+]([O-])c(-c1ccc(OC)c(OC)c1)c(N)[n+]2[O-],> 100,> 100,> 100,> 100 µM,> 100 µM,> 100,> 100,,
O=C1NC2(CCCCCC2)C2CCCCCCC12O (centres undefined),,> 100,> 100,> 100 µM,> 100 µM,> 100,> 100,,
N.N.N.N.N.[Cl-].[Co+3].c1ccc(-c2nn[n-]n2)cc1,> 100,,> 100,> 100 µM,> 100 µM,,,,GI50 (KM20L2 colon): > 100 µM; GI50 (HOP-18 NSCLC): 93.1 µM; GI50 (DMS 273 small cell lung): > 100 µM; GI50 (SNB-78 CNS): > 100 µM
COC(=O)c1ccccc1OCc1cc(=O)oc2ccc(C)cc12,> 100,> 100,,> 100 µM,,> 100,90.4,> 100,TGI (RXF-631 renal): > 100 µM
COCC(O)Cn1ccnc1[N+](=O)[O-] (centres undefined),> 100,> 100,,> 100 µM,> 100 µM,> 100,> 100,,
Cc1oc2c(C)c3oc(=O)cc(C)c3cc2c1CN1C(=O)C2OCCOCCOCCOCCOCCO[C@H]2C1=O (some centres undefined),> 100,> 100,> 100,> 100 µM,> 100 µM,> 100,,,TGI (RXF-631 renal): 74.2 µM
CC1OC(OC2C[C@](O)(C(=O)CF)Cc3c(O)c4c(c(O)c32)C(=O)c2ccccc2C4=O)CC(N)C1O (some centres undefined),0.353,0.248,,0.104 µM,3.53 µM,0.142,0.389,0.333,
O=C(O)C1OC1(c1cccc(Cl)c1)c1ccccc1Cl (centres undefined),,,,,,,,65.6,
C1=CC=C2NCCCCCCCNC3=CC=CC=CC3=NCCCCCCCN=C2C=C1,> 100,> 100,,39.9 µM,,,> 100,,TGI (RXF-631 renal): 25.7 µM
COc1cc2oc3cc(=O)cc4oc(-c5ccccc5)cc(c2c2c1CCC(c1ccccc1)O2)c43 (centres undefined),,,,,,,,> 100,
COc1cccc2c1C(=O)c1c(O)c3c(c(O)c1C2=O)CC(O)(C(O)CO)CC3OC1CC(N2CCOCC2)C(O)C(C)O1 (centres undefined),0.0943,,0.00797,0.0109 µM and 0.0429 µM,0.0323 µM and 0.188 µM,,0.0478,0.1,GI50 (M19-MEL melanoma): < 0.001 µM; GI50 (SNB-78 CNS): < 0.001 µM; GI50 (DMS 114 small cell lung): < 0.001 µM
OCC(O)C(Cl)CCl (centres undefined),,,,,,,,> 100,
N#CCCN(CCCN(CCCN(C(=O)Nc1ccccc1)c1ccccc1)C(=O)Nc1ccccc1)C(=O)Nc1ccccc1,,,,,,,,> 100,GI50 (MDA-N): > 100 µM
OCC1C(/C=C/c2ccoc2)ON2CCCC12 (centres undefined),> 100,> 100,86,> 100 µM,> 100 µM,,> 100,,
c1cc2n(n1)CCN2,> 10000,> 10000,> 10000,2440 µM,> 8740 µM,> 8170,6960,> 10000,TGI (SN12K1 renal): 5980 µM; TGI (P388/ADR leukemia): 4830 µM; TGI (P388 leukemia): 2770 µM
COc1cc(NC(C)CCCN)c2ncccc2c1 (centres undefined),> 100,> 100,> 100,> 100 µM,> 100 µM,> 89,73.2,> 82.1,TGI (RXF-631 renal): > 100 µM

# Reference: PubChem BioAssay (NCI)
